Patent US20110229437A1, “Method of Treating Asthma with Antiviral Agents” (priority 2009, published 2011)

What was measured:
[1] = Case report: asthma symptoms of an adult with history of asthma after a 5 day course of Tamiflu; details: one patient
From the text: They had been using Advair® two inhalations a day or Symbicort® four puffs a day. Advair® is a combination formulation containing fluticasone propionate (a corticosteroid) and salmeterol xinafoate (a long-acting β2-adrenergic receptor agonist). Symbicort® contains two active ingredients which are delivered via a single inhaler: budesonide, a corticosteroid, and formoterol, a long-acting β2-agonist.
Singulair® contains montelukast, a leukotriene receptor antagonist (LTRA) used for the maintenance treatment of asthma and to relieve symptoms of seasonal allergies.

[2] = Case report: flu like symptoms of the same adult under Tamiflu; type: in vivo, human; details: Tamiflu 75 mg by mouth twice a day

## CC(C)(O)c1ccccc1CC[C@@H](SCC1(CC(=O)O)CC1)c1cccc(/C=C/c2ccc3ccc(Cl)cc3n2)c1 [Singulair, montelukast]
[1]; used for years
  side effects in the patient: no side effects

## CCOC(=O)C1=C[C@@H](OC(CC)CC)[C@H](NC(C)=O)[C@@H](N)C1 [Tamiflu, Oseltamivir phosphate]
[1]; during/after Tamiflu 75 mg by mouth twice a day for 5 days
  asthma symptoms: diminished
[1]; five weeks after using Tamiflu
  level of asthmatic relief compared with prednisone 60 mg per day, reported by the patient: similar
[2]; one patient
  time until fatigue resolved: ≤ 1.5 days
  time until feeling better and myalgias relieved: ≤ 12 h
[2]; dropped from 39 C.° within 1.5 days
  fever after start of treatment: 38 C.°
